A short description of series [1]: MTT cytotoxicity test of mannose-modified reactants. As for the experimental part:
The cytotoxicity test, MTT assay, was performed to define the concentration using TPCPD-M (57, 1 mM) and BCN-M (61, 1 mM) (FIG. 4).
On the technique in general: Formazan colour is commonly taken as a measure of viable cells.

Series [2] concerns TNF-α. The series can be described thus: LPS-induced accumulation of TNF-α in RAW 264.7 culture supernatant (ELISA), two-component system. The format is cell-based, mouse. As for the experimental part:
RAW264.7 cell were seeded in 6-well plates and incubated overnight. Cells were then stimulated with LPS (10 mg/mL) for 1 h. TPCPD (1) and BCN (6a) (different concentrations) were added to well after 1 hr LPS treatment (same for all wells). As a control, the product (31) was used at same concentration as the anti-inflammation test to confirm that the suppression of TNF-α is result of CO instead of the reagent (or product) themselves (compounds 1, 6a, and 31). TNF-α secretion in the medium was measured with an eBioscience kit (mouse TNF-α ELISA kit, eBioscience, San Diego, Calif., USA).
TNF-α is a major pro-inflammatory cytokine, mainly secreted from macrophages and dendritic cells. Its production is induced in vitro by stimulation with LPS. The accumulation of TNF-α was assessed by ELISA in the culture supernatant of the macrophage cell line, RAW 264.7 (FIG. 5). The cells were stimulated for 1 h and then co-treated by […] for 24 h. […] A 50% decrease of the LPS-induced accumulation of TNF-α was observed after co-treatment with TPCPD-M and BCN-M at the respective concentration of 1 mM+1 mM.
(In general: In an ELISA, binding on a coated surface is turned into a signal by an enzyme label.)

Series [3] in a line: CO release kinetics by increase of fluorescence intensity. The format is physicochemical. As for the experimental part:
Compound 10a was dissolved indifferent solvents including CH2Cl2 (25° C.), CH3CN (25° C.), DMSO (25° C.), DMSO/PBS (10:1, 25° C.), DMSO/PBS (5:1, 25° C.), and DMSO/PBS (5:1, 37° C.) to give a final concentration of around 100 μM, and CO release was monitored by fluorescence intensity at 450 nm. Each experiment was repeated three times independently. The CO release rate (first order reaction rate) in DCM, CH3CN, DMSO, DMSO/PBS (10:1), DMSO/PBS (5:1), and DMSO/PBS (5:1, 37° C.) were different and their individual rate constant was calculated to be 2.3±0.2, 3.6±0.4, 6.6±0.6, 7.7±0.6, 11.0±1.4 and 22.4±3.2 h^−1, respectively. […] The CO release rate increased along with the polarity of the solvent.

Series [4] in a line: Fluorescence properties of the cycloaddition products. The format is physicochemical.
A short description of series [5]: Intramolecular DAR in DMSO/PBS (7.4) at 37° C., time to completion. The format is physicochemical. As for the experimental part:
A solution of compound 10b in DMSO/PBS (7.4) was incubated at 37° C. for 3 hrs, after which the intramolecular DAR reaction finished. Then the reaction mixture was extracted with ethyl acetate, and the obtained organic layer was dried with anhydrous Na2SO4, filtered and concentrated. Thus obtained pale yellow solid was characterized by ^1H NMR as the intramolecular DAR product. ^1H NMR (400 MHz, CDCl3): δ 9.27 (d, J=7.2 Hz, 1H), 7.88 (d, J=8.0 Hz, 1H), 7.79 (d, J=8.0 Hz, 1H), 7.71 (t, J=7.6 Hz, 1H), 7.61-7.53 (m, 5H), 7.32 (t, J=8.0 Hz, 1H), 7.08 (s, 1H), 7.04 (d, J=7.2 Hz, 1H), 5.37-5.18 (m, 1H), 3.53 (t, J=6.0 Hz, 2H), 3.05 (t, J=6.0 Hz, 2H), 1.32 (d, J=6.8 Hz, 6H).
A solution of compound 10b in DMSO/PBS (7.4) was incubated at 37° C. for 24 hrs, after which the intramolecular DAR reaction was finished. Then the reaction mixture was extracted with ethyl acetate, and the obtained organic layer was dried with anhydrous Na2SO4. Filtered and concentrated, the obtained pale yellow solid was characterized by ^1H NMR as the intramolecular DAR product. ^1H NMR (400 MHz, CDCl3) δ 9.12 (d, J=8.0 Hz, 1H), 7.83 (d, J=8.4 Hz, 1H), 7.73 (d, J=8.4 Hz, 1H), 7.68 (t, J=8.0 Hz, 1H), 7.63-7.54 (m, 3H), 7.36 (d, J=8.0 Hz, 2H), 7.24 (t, J=8.0 Hz, 1H), 6.32 (d, J=8.0 Hz, 1H), 5.29-5.26 (m, 1H), 3.57-3.46 (m, 2H), 3.05-2.94 (m, 2H), 2.12 (s, 3H), 1.33 (d, J=6.8 Hz, 6H). […]

The nature of series [6]: Determination of CO release rates (fluorescence or UV absorbance). To be noted: DMSO/PBS (4:1) at 37° C. The format is physicochemical. As for the experimental part: For CO prodrugs with naphthalene scaffold, the CO release rate is easily done by monitoring the fluorescence intensity of the cyclized product. For the others, the CO release rate was determined by employing the UV absorbance difference between the prodrugs and the cyclized product.

Series [7] deals with RAW 264.7 cells. Nature of the series: Cytotoxicity of CO prodrugs and inactive products (MTT). Format: cell-based, mouse. To be noted: 24 h incubation. As for the experimental part:
The toxicity of compound 10b and product of compound 10b (44b) after CO release were tested on RAW 264.7 cells, which is a mouse macrophage cell line used for anti-inflammation test. Different concentrations of 10b and 44b product were added into the cell culture media (Dulbecco's Modified Eagle's Medium supplemented with 10% heat inactivated fetal bovine serum and 1% penicillin-streptomycin). All samples with different concentrations of 10b or 44b product contained 1% DMSO in the cell culture media. RAW 264.7 cells were seeded in 96-well plate one day before the experiment. The cells were then incubated with the compound for 24 hours at 37° C. with 5% CO2. The cell viability was tested by MTT assay. Basically, after 24 hours of incubation, 0.5 mg/mL MTT (3-(4,5-Dimethylthiazol-2-yl)-2,5-Diphenyltetrazolium Bromide) was added into the cell culture and incubated for 4 hours. Thereafter, the supernatant was removed and 100 μL of DMSO were added into the wells containing cells. After shaking gently for 3 minutes, absorbance at 570 nm was read by plate reader.
(§1) 10a-10d, and 100 with different release rates were chosen to test their inhibitory effect against lipopolysaccharide (LPS) induced TNF-α secretion in RAW 264.7 cells. […] This was followed by the treatment of LPS for another 1 h. Then the cell culture supernatants were subjected to ELISA assay for TNF-α levels.

Series [8] can be described thus: CO release kinetics by increase of fluorescence intensity. Format: physicochemical. To be noted: PBS with 1% DMSO; 1% of DMSO in PBS (pH = 7.4); read-out: t1/2 half-life for CO release (converted).
For series [9], the system named is TNF-α. Nature of the series: TNF-α ELISA in LPS treated RAW 264.7 cells pre-treated with CO prodrug. The format is cell-based, mouse. The note with it: pre-treated 5 h, then LPS 1 h. As for the experimental part: RAW 264.7 cells were seeded in the 48-well plate one day before the experiment.
LPS was used to initialize the inflammatory response in RAW 264.7 cells and trigger the expression of cytokines. RAW 264.7 cells were pre-treated with different concentrations of 10b or 44b product for 5 hours. Thereafter, […] LPS was added with into the cell culture media. For TNF-α test, the cell culture supernatant was collected after 1 hour of LPS treatment. For IL-6 test, the cell culture supernatant was collected after 4 hours of LPS treatment. Cell culture without LPS treatment was used as control.
as §1

Series [10] relates to pulmonary arterial hypertension. To be noted: breathing CO gas (e.g., 150 ppm), after 16 weeks; cited from earlier work.
Setting [11] is: of the cycloaddition products 44a-44f and 100a.

Read-outs that look alike come from different tables or passages of the source.

Take `O=C(NCCOCCOCCOC1OC(CO)C(O)C(O)C1O)OCC1[C@H]2CCC#CCC[C@@H]12` (some centres unmarked) [BCN-M]: in [1] (24 h of treatment, within 1 mM), the cytotoxicity entry is “none of the compounds led to any cytotoxicity”. Also, the “decrease of the LPS-induced accumulation of TNF-α” value in series [2] (co-treatment with TPCPD-M and BCN-M 1 mM+1 mM, 24 h) amounted to 50%. The “inhibition of the LPS-induced accumulation of TNF-α” value in [2] (tested separately) was “do not lead to any inhibition”.

In the case of `NCC(=O)O.[C-]#[O+].[C-]#[O+].[C-]#[O+].[Cl][Ru]` [CORM3, reference compound], the “decrease in cell viability” value in series [1] (1 mM) was 30%.

For `C#CCN(C)C(=O)C1=C2C(=C(c3ccccc3)C1=O)c1cccc3cccc2c13` [Compound 10a], the “k CO release rate” value amounted to 2.3 ± 0.2 h⁻¹ in series [3] (CH2Cl2 at room temperature (25° C.)) and 22.4 ± 3.2 h⁻¹ in [3] (DMSO/PBS (pH = 7.4) 5:1 at 37° C.). The “CO release rate constant (first order)” value was determined as 3.6 ± 0.4 h⁻¹ in series [3] (CH3CN (25° C.)); 6.6 ± 0.6 h⁻¹ in [3] (DMSO (25° C.)); 11.0 ± 1.4 h⁻¹ in [3] (DMSO/PBS (5:1, 25° C.)); 7.7 ± 0.6 h⁻¹ in [3] (DMSO/PBS (10:1, 25° C.)). The compound further returned a λem emission wavelength in series [4] (setting [11]) of 450 nm. This compound returned a λex excitation wavelength in series [4] (setting [11]) of 371 nm. The compound also registered a Φ quantum yield in series [4] (of the cycloaddition products 44a-44f and 100a in MeOH, quinine sulfate as the standard) of 0.21. Besides, in [5], the “incubation time after which the intramolecular DAR reaction was finished” value came to 5 min.

Consider `C#CCOc1ccccc1C1=C2C(=C(C(=O)N3CCOCC3)C1=O)c1cccc3cccc2c13` [Compound 51], for which the “K CO release” value in [6] turned out to be 0.31 ± 0.003 h⁻¹. The “incubation time after which the intramolecular DAR reaction was finished” value in series [5] was determined as 960 min.

For the compound `C#CCCN(CCOC1OC(CO)C(O)C(O)C1O)C(=O)C1=C2C(=C(c3ccccc3)C1=O)c1cccc3cccc2c13` (centres unmarked) [Compound 100], the half-life is 2.1 h in series [3] (DMSO/PBS 5:1, DMSO/PBS (pH = 7.4) 5:1 at 37° C., read-out: t1/2 half-life for CO release (converted)) and 0.18 h in series [8]. In addition, the “K CO release” value in series [6] was 0.33 ± 0.01 h⁻¹. Also, the “effect on cell viability” value in [7] was “did not show any effect on cell viability at up to 50 μM”.

With `O=C1c2c(cc(-c3ccccc3)c3c2-c2cccc4cccc-3c24)CCN1CCOC1OC(CO)C(O)C(O)C1O` (centres unmarked) [Compound 100a], in series [7], the “effect on cell viability” value is given as “did not show any effect on cell viability at up to 50 μM”. In series [9], the “LPS-induced TNF-α expression / secretion” value is on record as “dose-dependently inhibited”.

With carbon monoxide [CO], the “decrease of pulmonary vascular resistance compared to the pre-therapy value” in series [10] is reported as 20%.

Source of the values: patent publication US11420994B2, “Carbon-monoxide-releasing molecules and therapeutic applications thereof” (GEORGIA STATE UNIVERSITY RESEARCH FOUNDATION, INC., priority 2016, dated 2022).
